Reference: patent US20140357713A1, “ANTIMICROBIAL COMPOUNDS AND METHODS OF USE” (NexMed Holdings, Inc., priority 2012, published 2014)
≈ marks a conversion by molar mass, not a printed value. Where a name gives a salt, the structure may show the parent alone. Read-outs that look alike come from different tables or passages of the source.

What was measured:
[1] = test system: Aspergillus niger (CMCC 98003); assay: Minimum inhibitory concentration (MIC) assay, Example 33; assay type: cell-based
Procedure: (§1) Thirty compounds were tested for antimicrobial activity using standard procedures and standard strains for both the minimum inhibitory concentration (MIC) assay and a time kill study. Both the MIC assay and the time kill study were performed according to Clinical and Laboratory Standards Institute (CLSI) guidelines. Three bacteria strains, Escherichia coli (ATCC 25922), Pseudomonas aeruginosa (ATCC 27853), Staphulococcus aureus (ATCC 29213), and two fungus strains, Candida albicans (ATCC 90029) and Aspergillus niger (CMCC 98003), were used in the experiments.
(§2) Preparation of cultures. Before the experiment, two days for the bacteria strains and five days for fungus strains, an aliquot was removed from the cultures frozen at −80° C. Medium was added to the surface of an appropriate agar plate and streaked with the aliquot. The plate was incubated for 20 to 24 hrs at 35±2° C. for bacteria or for 5 days at 26-30° C. in incubator for fungus. From the resulting growth on each plate, one isolated colony of similar morphology was selected and re-streaked onto a fresh agar plate using a sterile disposable loop. The plate was incubated 20 to 24 hrs at 35±2° C. or for 5 days at 26-30° C. in an incubator.
(§3) Preparation of Assay Plates with Medium and Drugs. On the day of the assay, CAMHB medium or RPMI 1640 medium was removed from 4′C storage and allowed to reach room temperature. Ninety microliters (μL) of room temperature CAMHB or RPMI 1640 (supplemented with the appropriate concentration of DMSO, if required) were added to rows B-G of each 96-well microtiter plate. Using a pipette, duplicate 180 μL aliquots of each drug stock solution were added to column 1 (e.g. A1 and B1 or C1 and D1 or E1 and F1 or G1 and H1). Using a multichannel pipette or the Provision 2000 liquid handler, serial 2-fold dilutions (90 μL) were performed in each row across the plate to row G. Eighty μL of compounds dilutions were transferred to a 96-deep well plate. Medium, 1,520 μL of CAMHB or RPMI 1640, was added to each well. The contents of the wells were mixed thoroughly. A 50 μL aliquot of each of the resulting mixtures was transferred to a 96-well assay plate.
(§4) For Aspergillus niger, sporulating colonies were covered with RPMI 1640, and a suspension was prepared by gently probing the colonies with the tip of a transfer pipette. The suspension was transferred to a sterile tube and mixed with a vortex mixer for 15 seconds. The densities at 530 nm were adjusted to 0.09-0.13 for each sample. The resulting suspension was diluted 1:50 with the medium to obtain two times test inoculums. Fifty μL/well of this inoculum suspension was added to wells of drug-containing plates (1:2 dilution). Plates were incubated at 35° C. for the appropriate times. The MIC was read and recorded according to CLSI guidelines.
(§5) The MIC values for thirty compounds against Escherichia coli, Pseudomonas aeruginosa, Staphulococcus aureus, Candida albicans, and Aspergillus niger were recorded and are presented in Table 3 and Table 4.

[2] = test system: Candida albicans (ATCC 90029); assay: as above; assay type: cell-based
Procedure: as §1, §2, §3
For Candida albicans, a sterile inoculating loop was used to transfer growth from an agar plate culture into a tube with RPMI1640 medium. This inoculum was adjusted so that its density at 530 nm was in the ranges from 0.08 to 0.13. The resulting suspension was diluted 1:50 and further diluted 1:20 with the medium to obtain two times test inoculums.
as §4, §5

[3] = test system: Staphulococcus aureus (ATCC 29213); assay: as above; assay type: cell-based, Staphylococcus aureus; settings: for MIC: Table 19 summary
Procedure: as §1, §2, §3
(§6) For bacteria, a sterile inoculating loop was used to transfer growth from an agar plate culture into about 5 mL of test medium. Using a turbidity meter, this inoculum was adjusted so that its density (600 nm) was equivalent to a 0.5 McFarland barium sulfate standard (0.08-0.13). The resulting suspension was diluted 1:100 into medium to obtain two times test inoculums.
as §4, §5

[4] = test system: Pseudomonas aeruginosa (ATCC 27853); assay: as above; assay type: cell-based; settings: for MIC: Table 19 summary
Procedure: as §1, §2, §3, §6, §4, §5

[5] = test system: Escherichia coli (ATCC 25922); assay: as above; assay type: cell-based; settings: for MIC: Table 19 summary of Example 33 and Example 35
Procedure: as §1, §2, §3, §6, §4, §5

pH (Table 1) = assay type: physicochemical
[6] = test system: Pseudomonas aeruginosa (ATCC 27853); assay: Time kill study, Example 33 (0 to 5 min); assay type: cell-based; settings: 1×MIC
Procedure: as §1
(§7) The viable counts in Log10 CFU/mL at each time point were recorded.
(§8) Time kill studies. Strain suspensions were prepared as described above for the MIC test, and strain suspensions and compound solutions were mixed in the same volume. Samples were removed at specified times including 0 min, 30 sec, 1 min and 5 mins, were diluted in the test medium and streaked on agar. Colonies were counted after 24 to 48 hrs of incubation. […]

[7] = test system: Escherichia coli (ATCC 25922); assay: Time kill study, Example 33 (0 to 5 min); assay type: cell-based; settings: 1×MIC
Procedure: as §1, §7, §8

[8] = test system: Staphylococcus aureus (ATCC 29213); assay: Time kill study, Example 33 (0 to 5 min); assay type: cell-based; settings: 1×MIC
Procedure: as §1, §7, §8

[9] = Table 19 summary, methanesulfonate

SMILES: OC(Cn1cncn1)(Cn1cncn1)c1ccc(F)cc1F [Fluconazole, reference compound]
- MIC ([1]; Aspergillus niger, CMCC98003, n = 1, read-out: MIC Aspergillus niger): > 4000 µg/mL
- MIC ([1]; Aspergillus niger, CMCC98003, n = 2, read-out: MIC Aspergillus niger): > 4000 µg/mL
- MIC ([2]; Candida albicans, ATCC90029, n = 1, read-out: MIC Candida albicans): 0.25 µg/mL (≈ 0.816 µM)
- MIC ([2]; Candida albicans, ATCC90029, n = 2, read-out: MIC Candida albicans): 0.25 µg/mL (≈ 0.816 µM)

SMILES: CCCCCCCCCCCCOC(=O)C(C)N(C)C (stereo not drawn) [Nex-20, Dodecyl 2-(dimethylamino)propanoate maleate]
- MIC S. aureus ([3]; n = 1, maleate): 3130 µg/mL
- MIC S. aureus ([3]; n = 2, maleate): 1560 µg/mL
- MIC ([4]; maleate): 6250 µg/mL
- MIC P. aeruginosa ([4]; n = 1, maleate): 6250 µg/mL
- MIC P. aeruginosa ([4]; n = 2, maleate): 6250 µg/mL
- MIC ([5]; maleate): 1560 µg/mL
- MIC E. coli ([5]; n = 1, maleate): 1560 µg/mL
- MIC E. coli ([5]; n = 2, maleate): 1560 µg/mL
- pH (pH (Table 1); maleate): 3.39
- MIC ([1]; Aspergillus niger, CMCC98003, Table 19 summary, read-out: MIC): > 12500 µg/mL
- MIC Aspergillus niger ([1]; n = 1, maleate): >12500 µg/mL
- MIC ([2]; Table 19 summary, maleate): 12500 µg/mL
- MIC Candida albicans ([2]; n = 1, maleate): 12500 µg/mL
- MIC Candida albicans ([2]; n = 2, maleate): 12500 µg/mL
- Viable counts, Pseudomonas aeruginosa time kill study ([6]; 0.5 min, maleate): <4.0 Log10 CFU/mL
- Viable counts, Pseudomonas aeruginosa time kill study ([6]; 1 min, maleate): 3.7 Log10 CFU/mL
- Viable counts, Pseudomonas aeruginosa time kill study ([6]; 5 min): <3.52 Log10 CFU/mL
- Viable counts, Pseudomonas aeruginosa time kill study ([6]; time 0, maleate): 5.56 Log10 CFU/mL
- Viable counts, Escherichia coli time kill study ([7]; 0.5 min, maleate): 5.84 Log10 CFU/mL
- Viable counts, Escherichia coli time kill study ([7]; 1 min, maleate): 5.92 Log10 CFU/mL
- Viable counts, Escherichia coli time kill study ([7]; 5 min, maleate): 4.37 Log10 CFU/mL
- Viable counts, Escherichia coli time kill study ([7]; time 0, maleate): 5.86 Log10 CFU/mL
- Viable counts, Staphylococcus aureus time kill study ([8]; 0.5 min, maleate): 6.18 Log10 CFU/mL
- Viable counts, Staphylococcus aureus time kill study ([8]; 1 min, maleate): 6.15 Log10 CFU/mL
- Viable counts, Staphylococcus aureus time kill study ([8]; 5 min, maleate): 5.61 Log10 CFU/mL
- Viable counts, Staphylococcus aureus time kill study ([8]; time 0, maleate): 6.15 Log10 CFU/mL

SMILES: CCCCCCCCCCCCOC(=O)C(C)N(C)C (stereo not drawn) [Nex-22, Dodecyl 2-(dimethylamino)propanoate methanesulfonate]
- MIC ([3]; methanesulfonate): 3130 µg/mL
- MIC S. aureus ([3]; n = 1, methanesulfonate): 3130 µg/mL
- MIC S. aureus ([3]; n = 2, methanesulfonate): 3130 µg/mL
- MIC ([4]; methanesulfonate): 6250 µg/mL
- MIC P. aeruginosa ([4]; n = 1, methanesulfonate): 6250 µg/mL
- MIC P. aeruginosa ([4]; n = 2, methanesulfonate): 6250 µg/mL
- MIC ([5]; methanesulfonate): 3130 µg/mL
- MIC E. coli ([5]; n = 1, methanesulfonate): 3130 µg/mL
- MIC E. coli ([5]; n = 2, methanesulfonate): 3130 µg/mL
- pH (pH (Table 1); methanesulfonate): 3.25
- MIC [1, 9]: >12500 µg/mL
- MIC Aspergillus niger ([1]; n = 1, methanesulfonate): >12500 µg/mL
- MIC [2, 9]: >12500 µg/mL
- MIC Candida albicans ([2]; n = 1, methanesulfonate): >12500 µg/mL
- MIC Candida albicans ([2]; n = 2, methanesulfonate): >12500 µg/mL
- Viable counts, Pseudomonas aeruginosa time kill study ([6]; 0.5 min, methanesulfonate): <4.0 Log10 CFU/mL
- Viable counts, Pseudomonas aeruginosa time kill study ([6]; 1 min, methanesulfonate): <3.70 Log10 CFU/mL
- Viable counts, Pseudomonas aeruginosa time kill study ([6]; time 0, methanesulfonate): 5.64 Log10 CFU/mL
- Viable counts, Escherichia coli time kill study ([7]; 0.5 min, methanesulfonate): 4.6 Log10 CFU/mL
- Viable counts, Escherichia coli time kill study ([7]; 1 min, methanesulfonate): <3.70 Log10 CFU/mL
- Viable counts, Escherichia coli time kill study ([7]; 5 min, methanesulfonate): <3.52 Log10 CFU/mL
- Viable counts, Escherichia coli time kill study ([7]; time 0, methanesulfonate): 5.78 Log10 CFU/mL
- Viable counts, Staphylococcus aureus time kill study ([8]; 0.5 min, methanesulfonate): 6.2 Log10 CFU/mL
- Viable counts, Staphylococcus aureus time kill study ([8]; 1 min, methanesulfonate): 6.18 Log10 CFU/mL
- Viable counts, Staphylococcus aureus time kill study ([8]; 5 min, methanesulfonate): 6.21 Log10 CFU/mL
- Viable counts, Staphylococcus aureus time kill study ([8]; time 0, methanesulfonate): 6.08 Log10 CFU/mL

SMILES: CCCCCCCCCCCCOC(=O)C(C)N(C)C (stereo not drawn) [Nex-30, Dodecyl 2-(dimethylamino)propanoate ethanesulfonate]
- MIC [3]: 3130 µg/mL
- MIC S. aureus ([3]; n = 1): 3130 µg/mL
- MIC S. aureus ([3]; n = 2): 3130 µg/mL
- MIC [4]: 6250 µg/mL
- MIC P. aeruginosa ([4]; n = 1): 6250 µg/mL
- MIC P. aeruginosa ([4]; n = 2): 6250 µg/mL
- MIC [5]: 3130 µg/mL
- MIC E. coli ([5]; n = 1): 3130 µg/mL
- MIC E. coli ([5]; n = 2): 3130 µg/mL
- pH (pH (Table 1)): 3.79
- MIC ([1]; Table 19 summary): >12500 µg/mL
- MIC Aspergillus niger ([1]; n = 1): >12500 µg/mL
- MIC Aspergillus niger ([1]; n = 2): >12500 µg/mL
- MIC ([2]; Table 19 summary): >12500 µg/mL
- MIC Candida albicans ([2]; n = 1): >12500 µg/mL
- MIC Candida albicans ([2]; n = 2): >12500 µg/mL
- Viable counts, Pseudomonas aeruginosa time kill study ([6]; 0.5 min): <4.0 Log10 CFU/mL
- Viable counts, Pseudomonas aeruginosa time kill study ([6]; 1 min): <3.70 Log10 CFU/mL
- Viable counts, Pseudomonas aeruginosa time kill study ([6]; 5 min): <3.52 Log10 CFU/mL
- Viable counts, Pseudomonas aeruginosa time kill study ([6]; time 0): 5.67 Log10 CFU/mL
- Viable counts, Escherichia coli time kill study ([7]; 0.5 min): 5.46 Log10 CFU/mL
- Viable counts, Escherichia coli time kill study ([7]; 1 min): 3.7 Log10 CFU/mL
- Viable counts, Escherichia coli time kill study ([7]; 5 min): <3.52 Log10 CFU/mL
- Viable counts, Escherichia coli time kill study ([7]; time 0): 5.83 Log10 CFU/mL
- Viable counts, Staphylococcus aureus time kill study ([8]; 0.5 min): 6.23 Log10 CFU/mL
- Viable counts, Staphylococcus aureus time kill study ([8]; 1 min): 6.22 Log10 CFU/mL
- Viable counts, Staphylococcus aureus time kill study ([8]; 5 min): 6.21 Log10 CFU/mL
- Viable counts, Staphylococcus aureus time kill study ([8]; time 0): 6.24 Log10 CFU/mL
